The nature of data set [1]: Aqueous solubility at pH 2 and pH 7. In kind it is physicochemical.
Another data set deals with BTK (Homo sapiens, UniProt Q06187). Nature of the data set: BTK covalent inhibition kinetics (KI, kinact, kinact/KI). In kind it is biochemical. The note with it: for Ki / kinact: average of 2 independent determinations (± SD). On the procedure: The development of the structure-activity relationship was conducted by characterizing the non-covalent affinity of each inhibitor for BTK (KI) and the first order rate constant for irreversible covalent bond formation (kinact). The second order rate constant kinact/KI ratio is used to assess the covalent inhibitor potency because it is independent of incubation time and substrate concentrations (Copeland, R. A. Evaluation of Enzyme Inhibitors in Drug Discovery: a Guide for Medicinal Chemists and Pharmacologists; 2nd ed.; Wiley: Hoboken, N.J., 2013).
Chain of BTK (Q06187 whole entry): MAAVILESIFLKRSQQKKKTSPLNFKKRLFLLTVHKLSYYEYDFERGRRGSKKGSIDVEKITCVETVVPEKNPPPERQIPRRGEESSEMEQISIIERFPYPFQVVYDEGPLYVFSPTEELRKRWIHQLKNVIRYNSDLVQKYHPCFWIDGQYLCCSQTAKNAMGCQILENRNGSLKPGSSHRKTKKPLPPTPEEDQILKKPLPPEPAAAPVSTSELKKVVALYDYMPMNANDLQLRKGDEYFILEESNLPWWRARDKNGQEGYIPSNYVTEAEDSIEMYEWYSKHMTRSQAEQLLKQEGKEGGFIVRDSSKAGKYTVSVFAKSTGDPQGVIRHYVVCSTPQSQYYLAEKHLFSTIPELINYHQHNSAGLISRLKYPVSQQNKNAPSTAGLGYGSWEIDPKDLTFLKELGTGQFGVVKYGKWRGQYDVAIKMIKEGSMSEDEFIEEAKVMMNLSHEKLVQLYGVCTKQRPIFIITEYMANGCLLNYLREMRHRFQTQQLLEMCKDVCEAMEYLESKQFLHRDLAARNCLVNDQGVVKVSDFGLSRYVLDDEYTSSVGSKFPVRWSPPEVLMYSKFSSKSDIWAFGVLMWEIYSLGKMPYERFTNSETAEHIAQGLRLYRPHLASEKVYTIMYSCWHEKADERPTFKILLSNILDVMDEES

The nature of data set [2]: Human liver microsomes T1/2. It is filed as in vitro ADME. Particulars: for half-life: human, liver microsomes.
Data set [3] can be described thus: Epimerization kinetics / rotational energy barrier of atropisomers in solvents. In kind it is physicochemical. Here is the method: The rotational energy barrier of compound of Formula (II) atropisomers was estimated according to the method known in the art. The rotational barrier was determined in several solvents and their aqueous mixtures and the results are reported in Table 13, where an average value of 120.5 kJ mol^−1 or 28.8 kcal mol^−1, corresponding to epimerization half-lives of 63.8 and 4.0 months at 20° C. and 37° C., respectively, were obtained, placing this compound on the top segment of Class 2 atropisomers according to the classification systems known in the art. The rotational barrier is slightly influenced by the solvent and increases in the order 1-butanol<2-butanol<1-propanol<propylene carbonate. Additionally, increasing amounts of water increased substantially the rotational barrier in all solvents with the highest value obtained in 1-propanol/water 33/67 w/w % system. Unfortunately, due to the low aqueous solubility of compound of Formula (II) in water, epimerization studies could not be accurately conducted in pure water.
Enriched compound of Formula (II) of the P isomer was dissolved in the respective solvent to create a concentration of ˜1 wt % and was placed in a standard screw cap vial (1.8 mL) equipped with a magnetic stirring bar. Subsequently, the vial was placed in the heating block of a parallel reactor setup (Crystal16, Technobis B.V.) which was preheated to the desired temperature (80° C.-100° C., depending on the solvent). At given time intervals, small aliquot samples were taken in an HPLC vial, diluted, and the diastereomeric excess of the mixture was determined by an UPLC apparatus, equipped with an Acquity UPLC BEH C18 column (0.6 ml/min, gradient 10 mM ammonium acetate acetonitrile 95-5 v/v % and acetonitrile at 35° C.). The time points and corresponding decay of diastereomeric excess (d.e.) were plotted as t vs ln (1/d.e.) to determine the interconversion rate constant, rotational energy barrier and epimerization half-life at the respective solvent and temperature:
[formula] [formula] [formula] • where [P], [M] are the concentrations of the P and M isomers, respectively, ke is the interconversion rate constant (s^−1), ΔGe^‡ is the rotational energy barrier (KJ mol^−1), T is the absolute temperature, kB, h and R are the Boltzmann, Planck and universal gas constants, respectively and t1/2 is the epimerization half-life. An example of the data treatment and determination procedure for ke is shown in FIG. 9 for propylene carbonate system at 100° C.

Experiment in data set [4]: as above
In kind it is physicochemical. The note with it: buffer, t1/2 at 100° C.

Where [5] appears, read: aqueous medium, aqueous buffer, Table 4, pH 7, read-out: Solubility pH 7.
[6] abbreviates: aqueous medium, simulated gastric fluid, Table 4, pH 2, read-out: Solubility pH 2.
Setting [7] is: aqueous medium, simulated gastric fluid, Table 5, pH 2, read-out: Solubility pH 2.

The text below walks through data of US20250163076A1, “SYNTHESIS OF BRUTON'S TYROSINE KINASE INHIBITORS” (JANSSEN PHARMACEUTICA NV, priority 2022, published 2025).

The Solubility is how much of the substance goes into solution per volume. As a reminder, the kinact is the maximal first-order rate at which the target is inactivated. As a reminder, the half-life is the time in which the quantity being followed falls by half. Low values mean rapid decline, high ones slow decline.

In brackets after ≈: the same amount, converted by molar mass. Read-outs that look alike come from different tables or passages of the source. Bounds are passed on as bounds.

As to `C=CC(=O)N1CCCC(NC(=O)c2sc3nccc4c3c2NC(=O)N4c2cnc(OC(C)C)cc2C)C1` (centres unmarked) [Compound I], the Solubility in data set [1] (setting [5]) was found to be 68 µM (≈ 35.4 µg/mL). Besides, the Solubility in data set [1] (setting [6]) is 119 µM (≈ 62 µg/mL). At BTK (Table 4), the kinact/KI stood at 1660 ± 62 M⁻¹ s⁻¹, the Ki worked out at 208 ± 15 nM and the kinact was 0.000345 s⁻¹. Also, at BTK (Table 4, read-out: kinact/KI), the kinact/KI is 1660 M⁻¹ s⁻¹. This compound returned a half-life in data set [2] (Table 4) of 19 min.
For the compound `C=CC(=O)NCCNC(=O)c1sc2nccc3c2c1NC(=O)N3c1cnc(CC(C)C)cc1C` [L], the Solubility in data set [1] (Table 5, pH 7, read-out: Solubility pH 7) was 220 µM (≈ 105 µg/mL); in data set [1] (setting [7]) it was greater than 400 µM. For the same compound, the Ki on BTK (Table 5) was 2430 nM. Besides, the kinact on BTK (Table 5) amounted to 0.000317 s⁻¹. Moreover, the kinact/KI at BTK (Table 5, read-out: kinact/KI) is 131 ± 2 M⁻¹ s⁻¹. Also, the “Human liver microsomes T1/2” value in data set [2] (Table 5) was 27 min.
As for `C=CC(=O)N1CCCC(NC(=O)c2sc3nccc4c3c2NC(=O)N4c2cnc(Oc3ccccc3)cc2C)C1` (centres unmarked) [Compound F], in data set [1] (setting [5]), the Solubility turned out to be 7 µM (≈ 3.88 µg/mL). The Solubility in data set [1] (setting [6]) is 15 µM (≈ 8.32 µg/mL). Besides, at BTK (Table 4), the Ki stood at 27.6 nM and the kinact came to 0.000352 s⁻¹. Besides, the kinact/KI on BTK (Table 4, read-out: kinact/KI) is 13000 ± 1700 M⁻¹ s⁻¹. The half-life in data set [2] (Table 4) amounted to 5 min.
For the compound `C=CC(=O)N1CCCC(NC(=O)c2sc3nccc4c3c2NC(=O)N4c2cnc(OC3CCC3)cc2C)C1` (centres unmarked) [H], in data set [1] (setting [5]), the Solubility is 4 µM (≈ 2.13 µg/mL). In addition, the Solubility in data set [1] (setting [6]) was 10 µM (≈ 5.33 µg/mL). Moreover, on BTK (Table 4), the Ki is 64 ± 14 nM and the kinact worked out at 0.000316 s⁻¹. Moreover, the kinact/KI at BTK (Table 4, read-out: kinact/KI) was found to be 5000 ± 560 M⁻¹ s⁻¹. In data set [2] (Table 4), this compound came in with a half-life of less than 4 min.
With `C=CC(=O)N1CCCC(NC(=O)c2sc3nccc4c3c2NC(=O)N4c2cnc(CC(C)C)cc2C)C1` (centres unmarked) [J], the Solubility in data set [1] (aqueous medium at pH 2, simulated gastric fluid, Table 4, pH 2, read-out: Solubility pH 2) was 350 µM (≈ 182 µg/mL). The Solubility in data set [1] (aqueous medium at pH 7, aqueous buffer, Table 4, pH 7, read-out: Solubility pH 7) is 23 µM (≈ 11.9 µg/mL). Also, on BTK (Table 4), the Ki was found to be 145 ± 20 nM and the kinact worked out at 0.000319 s⁻¹. Also, the kinact/KI on BTK (Table 4, read-out: kinact/KI) is 2220 ± 272 M⁻¹ s⁻¹. Besides, in data set [2] (Table 4), the half-life came out at 6 min.
Take `C=CC(=O)N1CCCC(NC(=O)c2sc3nccc4c3c2NC(=O)N4c2ccc(Oc3ccccc3)nc2)C1` (centres unmarked) [D]: the Solubility in data set [1] (setting [5]) is 4 µM (≈ 2.16 µg/mL); in data set [1] (setting [6]), 18 µM (≈ 9.73 µg/mL). This compound came in with a Ki at BTK (Table 4) of 354 ± 29 nM. At BTK (Table 4), the kinact was 0.000278 s⁻¹. In addition, the kinact/KI on BTK (Table 4, read-out: kinact/KI) came to 786 ± 63 M⁻¹ s⁻¹. In addition, the half-life in data set [2] (Table 4) was found to be 6 min.
Regarding `C=CC(=O)N1CCCC(NC(=O)c2sc3nccc4c3c2NC(=O)N4c2ccc(Oc3ccccc3)cn2)C1` (centres unmarked) [C], the Solubility in data set [1] (setting [5]) was found to be 9 µM (≈ 4.87 µg/mL). In addition, the Solubility in data set [1] (setting [6]) was 10 µM (≈ 5.41 µg/mL). Also, at BTK (Table 4), the Ki stood at 456 ± 7 nM and the kinact stood at 0.000303 s⁻¹. Also, the kinact/KI at BTK (Table 4, read-out: kinact/KI) was found to be 664 ± 44 M⁻¹ s⁻¹. This compound also came in with a half-life in data set [2] (Table 4) of less than 4 min.
Regarding `C=CC(=O)N[C@H]1CCC[C@H]1NC(=O)c1sc2nccc3c2c1NC(=O)N3c1cnc(CC(C)C)cc1C` [Formula (II), N-((1R,2S)-2-acrylamidocyclopentyl)-5-(6-isobutyl-4-methylpyridin-3-yl)-4-oxo-4,5-dihydro-3H-1-thia-3,5,8-triazaacenaphthylene-2-carboxamide], the ΔG was 119.2 kJ/mol in data set [3] (1-butanol); 120.0 kJ/mol in data set [3] (1-butanol/water 85/15 w/w %); 120.1 kJ/mol in data set [3] (1-propanol); 121.7 kJ/mol in data set [3] (1-propanol/water 33/67 w/w %); 121.2 kJ/mol in data set [3] (1-propanol/water 50/50 w/w %); 120.7 kJ/mol in data set [3] (1-propanol/water 67/33 w/w %). The ΔG stood at 120.6 kJ/mol in data set [3] (1-propanol/water 80/20 w/w %); 119.4 kJ/mol in data set [3] (2-MeTHF); 119.4 kJ/mol in data set [3] (2-butanol); 120.4 kJ/mol in data set [3] (2-butanol/water 70/30 w/w %); 118.8 kJ/mol in data set [3] (3-methyl-1-butanol); 119.7 kJ/mol in data set [3] (3-methyl-1-butanol/water 91/9 w/w %). The ΔG in data set [3] (Acetonitrile) amounted to 122.0 kJ/mol; in data set [3] (EA), 119.6 kJ/mol; in data set [3] (EtOH), 121.3 kJ/mol; in data set [3] (IPA), 120.8 kJ/mol; in data set [3] (IPAC), 120.2 kJ/mol; in data set [3] (MEK), 120.5 kJ/mol. Moreover, the ΔG in data set [3] (MIBK) is 119.4 kJ/mol; in data set [3] (Propylene carbonate), 120.9 kJ/mol; in data set [3] (Toluene), 125.6 kJ/mol; in data set [3] (propylene carbonate/water 93/7 w/w %), 121.1 kJ/mol. Also, the half-life in data set [3] (1-butanol, t1/2 at 20° C.) is 1100 days; in data set [3] (1-butanol/water 85/15 w/w %, t1/2 at 20° C.), 1460 days; in data set [3] (1-propanol, t1/2 at 20° C.), 1460 days; in data set [3] (1-propanol/water 33/67 w/w %, t1/2 at 20° C.), 3290 days; in data set [3] (1-propanol/water 50/50 w/w %, t1/2 at 20° C.), 2560 days; in data set [3] (1-propanol/water 67/33 w/w %, t1/2 at 20° C.), 2190 days. For the same compound, the half-life in data set [3] (1-propanol/water 80/20 w/w %, t1/2 at 20° C.) is 2190 days; in data set [3] (2-MeTHF, t1/2 at 20° C.), 1100 days; in data set [3] (2-butanol, t1/2 at 20° C.), 1100 days; in data set [3] (2-butanol/water 70/30 w/w %, t1/2 at 20° C.), 1830 days; in data set [3] (3-methyl-1-butanol, t1/2 at 20° C.) it was 1100 days; in data set [3] (3-methyl-1-butanol/water 91/9 w/w %, t1/2 at 20° C.) it was 1460 days. Further, the half-life in data set [3] (Acetonitrile, t1/2 at 20° C.) is 3650 days; in data set [3] (EA, t1/2 at 20° C.), 1460 days; in data set [3] (EtOH, t1/2 at 20° C.), 2560 days; in data set [3] (IPA, t1/2 at 20° C.), 2190 days; in data set [3] (IPAC, t1/2 at 20° C.) it was 1830 days; in data set [3] (MEK, t1/2 at 20° C.), 1830 days. Also, the half-life in data set [3] (MIBK, t1/2 at 20° C.) was 1100 days; in data set [3] (buffer, t1/2 at 85° C.) it was 0.156 days; in data set [3] (buffer, t1/2 at 120° C.) it was 0.00417 days; in data set [3] (propylene carbonate, t1/2 at 20° C.), 2190 days; in data set [3] (propylene carbonate/water 93/7 w/w %, t1/2 at 20° C.), 2560 days; in data set [4] it was 43 min.
Regarding `C=CC(=O)N1CCC(NC(=O)c2sc3nccc4c3c2NC(=O)N4c2cnc(CC(C)C)cc2C)C1` (centres unmarked) [K], the Solubility in data set [1] (aqueous medium, aqueous buffer, Table 5, pH 7, read-out: Solubility pH 7) was 172 µM (≈ 86.8 µg/mL); in data set [1] (setting [7]), greater than 400 µM. Further, the Ki on BTK (Table 5) worked out at 2550 nM. Further, the kinact on BTK (Table 5) came out at 0.000255 s⁻¹. In addition, the kinact/KI at BTK (Table 5, read-out: kinact/KI) was 98.5 ± 12 M⁻¹ s⁻¹. The compound further gave a half-life in data set [2] (Table 5) of 53 min.
